Assay results taken from US20240294534A1, “IMIDAZOTRIAZINE DERIVATIVES AS IL-17 MODULATORS” (UCB BIOPHARMA SRL, priority 2021, published 2024).
pIC50: −log10 of the molar value.

Each compound was assayed against T1, IL-17A (Homo sapiens, UniProt Q16552) (assay: Inhibition of IL-17A induced IL-6 release from dermal fibroblast cell line (HDF cell line assay)). Conditions: human dermal fibroblasts stimulated with IL-17A (50 pM) + TNF-α (25 pM); IL-6 measured by HTRF; pIC50 = -log10[IC50], IC50 molar.
T1 sequence (Q16552 24-155): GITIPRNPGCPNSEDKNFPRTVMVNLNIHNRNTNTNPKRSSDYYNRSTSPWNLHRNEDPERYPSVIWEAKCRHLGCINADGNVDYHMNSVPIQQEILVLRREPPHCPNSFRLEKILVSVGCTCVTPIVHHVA
Assay type: cell-based
Excerpt: Inhibition of IL-17A Induced IL-6 Release from Dermal Fibroblast Cell Line
The purpose of this assay is to test the neutralising ability to IL-17 proteins, in a human primary cell system. Stimulation of normal human dermal fibroblasts (HDF) with IL-17 alone produces only a very weak signal but in combination with certain other cytokines, such as TNFα, a synergistic effect can be seen in the production of inflammatory cytokines, i.e. IL-6.
HDFs were stimulated with IL-17A (50 pM) in combination with TNF-α (25 pM). The resultant IL-6 response was then measured using a homogenous time-resolved FRET kit from Cisbio. The kit utilises two monoclonal antibodies, one labelled with Eu-Cryptate (Donor) and the second with d2 or XL665 (Acceptor). The intensity of the signal is proportional to the concentration of IL-6 present in the sample (Ratio is calculated by 665/620×104).
The ability of a compound to inhibit IL-17 induced IL-6 release from human dermal fibroblasts is measured in this assay.
HDF cells (Sigma #106-05n) were cultured in complete media (DMEM+10% FCS+2 mM L-glutamine) and maintained in a tissue culture flask using standard techniques. Cells were harvested from the tissue culture flask on the morning of the assay using TrypLE (Invitrogen #12605036). The TrypLE was neutralised using complete medium (45 mL) and the cells were centrifuged at 300×g for 3 minutes. The cells were re-suspended in complete media (5 mL) counted and adjusted to a concentration of 3.125×10^4 cells/mL before being added to the 384 well assay plate (Corning #3701) at 40 μL per well. The cells were left for a minimum of three hours, at 37° C./5% CO2, to adhere to the plate.
Compounds were serially diluted in DMSO before receiving an aqueous dilution into a 384 well dilution plate (Greiner #781281), where 5 μL from the titration plate was transferred to 45 μL of complete media and mixed to give a solution containing 10% DMSO.
Mixtures of TNFα and IL-17 cytokine were prepared in complete media to final concentrations of TNFα 25 pM/IL-17A 50 pM, then 30 μL of the solution was added to a 384 well reagent plate (Greiner #781281).
10 μL from the aqueous dilution plate was transferred to the reagent plate containing 30 μL of the diluted cytokines, to give a 2.5% DMSO solution. The compounds were incubated with the cytokine mixtures for 5 h at 37° C. After the incubation, 10 μL was transferred to the assay plate, to give a 0.5% DMSO solution, then incubated for 18-20 h at 37° C./5% CO2.
From the Cisbio IL-6 FRET kit (Cisbio #62IL6PEB) europium cryptate and Alexa 665 were diluted in reconstitution buffer and mixed 1:1, as per kit insert. To a white low volume 384 well plate (Greiner #784075) were added FRET reagents (10 μL), then supernatant (10 μL) was transferred from the assay plate to Greiner reagent plate. The mixture was incubated at room temperature for 3 h with gentle shaking (<400 rpm) before being read on a Synergy Neo 2 plate reader (Excitation: 330 nm; Emission: […]).

pIC50	Structure (SMILES)
7.20	Cc1nonc1C(=O)N[C@H](c1cn2ncc(C3(C(=O)N4CC(C(F)(F)F)C4)CCN(C4COC4)CC3)nc2n1)C1CCC(F)(F)CC1 [Example 55, N—[(S)-(4,4-Difluorocyclohexyl)(3-{1-(oxetan-3-yl)-4-[3-(trifluoromethyl)azetidine-1-carbonyl]piperidin-4-yl}imidazo[1,2-b][1,2,4]triazin-6-yl)methyl]-4-methyl-1,2,5-oxadiazole-3-carboxamide]
8.30	Cc1nonc1C(=O)N[C@H](c1cn2ncc([C@H]3C[C@](C)(O)CCN3C(=O)[C@@H]3CCC(F)(F)CO3)nc2n1)C1CCC(F)(F)CC1 (single isomer, unassigned) [Example 39]
7.90	CC(C)n1nccc1C(=O)N[C@H](c1cn2ncc(C3(C(=O)NCC(C)(F)F)CCC(F)(F)CC3)nc2n1)C1CCC(F)(F)CC1 [Example 16, N—[(S)-(4,4-Difluorocyclohexyl){3-[1-(2,2-difluoropropylcarbamoyl)-4,4-difluoro-cyclohexyl]imidazo[1,2-b][1,2,4]triazin-6-yl}methyl]-2-isopropylpyrazole-3-carboxamide]
7.80	Cc1nonc1C(=O)N[C@H](c1cn2ncc([C@H]3C[C@@](O)(C(F)F)CCN3C(=O)[C@@H]3CCC(F)(F)CO3)nc2n1)C1CCC(F)(F)CC1 (single isomer, unassigned) [Example 31]
7.40	Cc1nonc1C(=O)N[C@H](c1cn2ncc([C@@H]3C[C@](O)(C(F)F)CCN3C(=O)C34CC(F)(C3)C4)nc2n1)C1CCC(F)(F)CC1 (single isomer, unassigned) [Example 28]
8.00	Cc1nonc1C(=O)N[C@H](c1cn2ncc([C@@H]3COCCN3C(=O)[C@@H]3CCC(F)(F)CO3)nc2n1)[C@H]1CC[C@H](C(F)(F)F)CC1 (single isomer, unassigned) [Example 24]
8.20	Cc1nonc1C(=O)N[C@H](c1cn2ncc([C@@H]3COCCN3C(=O)[C@@H]3CCC(F)(F)CO3)nc2n1)C1CCC(F)(F)CC1 (single isomer, unassigned) [Example 7]
6.20	CC(C)n1ncnc1C(=O)N[C@H](c1cn2ncc([C@@H]3C[C@@](O)(C(F)F)CCN3C(=O)[C@@H]3CCC(F)(F)CO3)nc2n1)C1CCC(F)(F)CC1 (single isomer, unassigned) [Example 49]
7.30	O=C(N[C@H](c1cn2ncc([C@@H]3C[C@@](O)(C(F)(F)F)CCN3C(=O)C34CC(F)(C3)C4)nc2n1)C1CCC(F)(F)CC1)C1(F)CC1 (single isomer, unassigned) [Example 11]
6.30	Cc1nonc1C(=O)N[C@H](c1cn2ncc([C@H]3C[C@](O)(C(F)(F)F)CCN3C(=O)C34CC(F)(C3)C4)nc2n1)C1CCC(F)(F)CC1 (single isomer, unassigned) [Example 10]
8.60	Cc1nonc1C(=O)N[C@H](c1cn2ncc([C@@H]3C[C@@](O)(C(F)(F)F)CCN3C(=O)[C@@H]3CCC(F)(F)CO3)nc2n1)C1CCC(F)(F)CC1 (single isomer, unassigned) [Example 18]
7.90	Cc1nonc1C(=O)N[C@H](c1cn2ncc(C3(C(=O)NCC(C)(F)F)CCOCC3)nc2n1)C1CCC(F)(F)CC1 [Example 17, N—[(S)-(4,4-Difluorocyclohexyl){3-[4-(2,2-difluoropropylcarbamoyl)tetrahydropyran-4-yl]imidazo[1,2-b][1,2,4]triazin-6-yl}methyl]-4-methyl-1,2,5-oxadiazole-3-carboxamide]
6.60	CC(C)n1ncnc1C(=O)N[C@H](c1cn2ncc([C@H]3C[C@@H](O)CCN3C(=O)[C@@H]3CCC(F)(F)CO3)nc2n1)C1CCC(F)(F)CC1 (single isomer, unassigned) [Example 51]
6.50	Cc1nonc1C(=O)N[C@H](c1cn2ncc([C@@H]3COCCN3C(=O)[C@@H]3CCC(F)(F)CO3)nc2n1)[C@H]1CC[C@H](C(F)(F)F)CC1 (single isomer, unassigned) [Example 25]
6.80	Cc1nonc1C(=O)N[C@H](c1cn2ncc([C@H]3C[C@](O)(C(F)F)CCN3C(=O)[C@@H]3CCC(F)(F)CO3)nc2n1)C1CCC(F)(F)CC1 (single isomer, unassigned) [Example 23]
7.80	O=C([C@@H]1CCC(F)(F)CO1)N1CC[C@](O)(C(F)(F)F)C[C@H]1c1cnn2cc([C@@H](NC(=O)C3(F)CC3)C3CCC(F)(F)CC3)nc2n1 (single isomer, unassigned) [Example 20]

pIC50	Structure (SMILES)
8.10	Cc1nonc1C(=O)N[C@H](c1cn2ncc([C@@H]3C[C@@](O)(C(F)(F)F)CCN3C(=O)C34CC(F)(C3)C4)nc2n1)C(C1CC1)C1CC1 (single isomer, unassigned) [Example 1]
5.10	O=C(N[C@H](c1cn2ncc([C@H]3C[C@](O)(C(F)(F)F)CCN3C(=O)C34CC(F)(C3)C4)nc2n1)C1CCC(F)(F)CC1)C1(F)CC1 (single isomer, unassigned) [Example 12]
7.00	Cc1nonc1C(=O)N[C@H](c1cn2ncc([C@H]3COCCN3C(=O)[C@@H]3CCC(F)(F)CO3)nc2n1)C(C1CC1)C1CC1 (single isomer, unassigned) [Example 6]
7.60	Cc1nonc1C(=O)N[C@H](c1cn2ncc([C@H]3C[C@@H](O)CCN3C(=O)[C@@H]3CCC(F)(F)CO3)nc2n1)C1CCC(F)(F)CC1 (single isomer, unassigned) [Example 43]
8.40	Cc1nonc1C(=O)N[C@H](c1cn2ncc([C@H]3C[C@H](O)CCN3C(=O)[C@@H]3CCC(F)(F)CO3)nc2n1)C1CCC(F)(F)CC1 (single isomer, unassigned) [Example 45]
7.10	Cc1nonc1C(=O)N[C@H](c1cn2ncc([C@@H]3C[C@@](C)(O)CCN3C(=O)C34CC(F)(C3)C4)nc2n1)C1CCC(F)(F)CC1 (single isomer, unassigned) [Example 40]
8.20	Cc1nonc1C(=O)N[C@H](c1cn2ncc([C@@H]3C[C@@](O)(C(F)F)CCN3C(=O)[C@@H]3CCC(F)(F)CO3)nc2n1)C1CCC(F)(F)CC1 (single isomer, unassigned) [Example 22]
7.90	Cc1nonc1C(=O)N[C@H](c1cn2ncc([C@@H]3C[C@](O)(C(F)F)CCN3C(=O)[C@@H]3CCC(F)(F)CO3)nc2n1)C1CCC(F)(F)CC1 (single isomer, unassigned) [Example 30]
8.10	CC(C)n1ncnc1C(=O)N[C@H](c1cn2ncc([C@@H]3C[C@](C)(O)CCN3C(=O)[C@@H]3CCC(F)(F)CO3)nc2n1)C1CCC(F)(F)CC1 (single isomer, unassigned) [Example 52]
7.00	Cc1nonc1C(=O)N[C@H](c1cn2ncc([C@H]3C[C@](O)(C(F)(F)F)CCN3C(=O)[C@@H]3CCC(F)(F)CO3)nc2n1)C1CCC(F)(F)CC1 (single isomer, unassigned) [Example 19]
8.40	Cc1nonc1C(=O)N[C@H](c1cn2ncc([C@@H]3C[C@](C)(O)CCN3C(=O)[C@@H]3CCC(F)(F)CO3)nc2n1)C1CCC(F)(F)CC1 (single isomer, unassigned) [Example 34]
7.90	Cc1nonc1C(=O)N[C@H](c1cn2ncc([C@@H]3C[C@H](O)CCN3C(=O)[C@@H]3CCC(F)(F)CO3)nc2n1)C1CCC(F)(F)CC1 (single isomer, unassigned) [Example 42]
6.90	Cc1nonc1C(=O)NC(c1cn2ncc(C3COCCN3C(=O)C3CCC(F)(F)CO3)nc2n1)C1CCC(F)(F)CC1 (single isomer, unassigned) [Example 8]
7.20	Cc1nonc1C(=O)N[C@H](c1cn2ncc([C@@H]3C[C@](O)(C(F)(F)F)CCN3C(=O)C34CC(F)(C3)C4)nc2n1)C1CCC(F)(F)CC1 (single isomer, unassigned) [Example 32]
8.00	Cc1nonc1C(=O)N[C@H](c1cn2ncc([C@@H]3C[C@@](O)(C(F)F)CCN3C(=O)C34CC(F)(C3)C4)nc2n1)C1CCC(F)(F)CC1 (single isomer, unassigned) [Example 26]
